Assay results published in patent publication US10633353B2, “Polymerizable compound, composition, polymer, optically anisotropic body, liquid crystal display element, and organic EL display” (DIC Corporation, priority 2014, dated 2020).

test: Preservation stability of the coating liquid; format: physicochemical; details: coating liquid stored for 2 months shielded from light at 0° C.; appearance and GPC
Protocol: The preservation stability of the coating liquid was evaluated on a scale of A to E on the basis of the state of the coating liquid that was stored for 2 months under a condition where the coating liquid was shielded from light at 0° C.
A: No visual change in the appearance of the coating liquid was confirmed. A GPC analysis of the coating liquid confirmed that the change in the composition of the coating liquid was 1% or less.
B: No visual change in the appearance of the coating liquid was confirmed. A GPC analysis of the coating liquid confirmed that the change in the composition of the coating liquid was 2% or less.
C: A visual change in the appearance of the coating liquid was confirmed; a trace amount of insoluble components were confirmed, or a GPC analysis of the coating liquid confirmed that the change in the composition of the coating liquid was 3% or less.
D: A visual change in the appearance of the coating liquid was confirmed; insoluble components were confirmed. The ratio of the weight of the insoluble components to the total solid content was 5% or less.
E: A large amount of insoluble components were visually confirmed. The ratio of the weight of the insoluble components to the total solid content was 5% or more.

| SMILES | Preservation stability |
| --- | --- |
| C=CC(=O)OCCCCCCOc1ccc(OC(=O)C2CCC(COc3ccc(OCC4CCC(C(=O)Oc5ccc(OCCCCCCOC(=O)C=C)cc5)CC4)c(/C=N/N(CCOCCOC)c4nc5ccccc5s4)c3)CC2)cc1 (stereo not shown) [1-cmn-91] | A (No visual change in the appearance of the coating liquid was confirmed. A GPC analysis of the coating liquid confirmed that the change in the composition of the coating liquid was 1% or less.) |
| C=CC(=O)OCCCOc1ccc(OC(=O)C2CCC(COc3ccc(OCC4CCC(C(=O)Oc5ccc(OCCCOC(=O)C=C)cc5)CC4)c(/C=N/N(CCOCCOC)c4nc5ccccc5s4)c3)CC2)cc1 (stereo not shown) [1-cmn-92] | A (No visual change in the appearance of the coating liquid was confirmed. A GPC analysis of the coating liquid confirmed that the change in the composition of the coating liquid was 1% or less.) |
| C=CC(=O)OCCCCCCOc1ccc(OC(=O)C2CCC(COc3ccc(OCC4CCC(C(=O)Oc5ccc(OCCCCCCOC(=O)C=C)cc5)CC4)c(/C=N/N(CCOC(=O)C=C)c4nc5ccccc5s4)c3)CC2)cc1 (stereo not shown) [1-cmn-93] | A (No visual change in the appearance of the coating liquid was confirmed. A GPC analysis of the coating liquid confirmed that the change in the composition of the coating liquid was 1% or less.) |
| C=CC(=O)OCCCCCCOc1ccc(OC(=O)C2CCC(COc3ccc(OCC4CCC(C(=O)Oc5ccc(OCCCCCCOC(=O)C=C)cc5)CC4)c(/C=N/N(CCOCCOCCOC(=O)C=C)c4nc5ccccc5s4)c3)CC2)cc1 (stereo not shown) [1-cmn-94] | A (No visual change in the appearance of the coating liquid was confirmed. A GPC analysis of the coating liquid confirmed that the change in the composition of the coating liquid was 1% or less.) |
| C=CC(=O)OCCCOc1ccc(OC(=O)C2CCC(COc3ccc(OCC4CCC(C(=O)Oc5ccc(OCCCOC(=O)C=C)cc5)CC4)c(/C=N/N(C(=O)C=C)c4nc5ccccc5s4)c3)CC2)cc1 (stereo not shown) [1-cmn-107] | A (No visual change in the appearance of the coating liquid was confirmed. A GPC analysis of the coating liquid confirmed that the change in the composition of the coating liquid was 1% or less.) |
| C=CC(=O)OCCCCCCOc1ccc(OC(=O)C2CCC(COc3ccc(OCC4CCC(C(=O)Oc5ccc(OCCCCCCOC(=O)C=C)cc5)CC4)c(/C=N/N(C(=O)C=C)c4nc5ccccc5s4)c3)CC2)cc1 (stereo not shown) [1-cmn-108] | A (No visual change in the appearance of the coating liquid was confirmed. A GPC analysis of the coating liquid confirmed that the change in the composition of the coating liquid was 1% or less.) |
| C=CC(=O)OCCCCCCOc1ccc(C(=O)Oc2ccc(OC(=O)c3ccc(OCCCCCCOC(=O)C=C)cc3)c(/C=N/N(CCCCCC)c3nc4ccccc4s3)c2)cc1 [1-cn-83] | A (No visual change in the appearance of the coating liquid was confirmed. A GPC analysis of the coating liquid confirmed that the change in the composition of the coating liquid was 1% or less.) |
| C=CC(=O)OCCCOc1ccc(C(=O)Oc2ccc(OCCCOC(=O)C=C)cc2/C=N/Nc2nc3ccccc3s2)cc1 [1-e-69] | A (No visual change in the appearance of the coating liquid was confirmed. A GPC analysis of the coating liquid confirmed that the change in the composition of the coating liquid was 1% or less.) |
| C=CC(=O)OCCCCCCOc1ccc(C(=O)Oc2ccc(OCCCCCCOC(=O)C=C)cc2/C=N/Nc2nc3ccccc3s2)cc1 [1-e-70] | A (No visual change in the appearance of the coating liquid was confirmed. A GPC analysis of the coating liquid confirmed that the change in the composition of the coating liquid was 1% or less.) |
| C=CC(=O)OCCCCCCOc1ccc(C(=O)Oc2ccc3cc(OCCCCCCOC(=O)C=C)ccc3c2/C=N/Nc2nc3ccccc3s2)cc1 [1-e-73] | A (No visual change in the appearance of the coating liquid was confirmed. A GPC analysis of the coating liquid confirmed that the change in the composition of the coating liquid was 1% or less.) |
| C=CC(=O)OCCCOc1ccc(C(=O)Oc2ccc(C(=O)Oc3ccc(OCCCOC(=O)C=C)cc3/C=N/Nc3nc4ccccc4s3)cc2)cc1 [1-eh-71] | A (No visual change in the appearance of the coating liquid was confirmed. A GPC analysis of the coating liquid confirmed that the change in the composition of the coating liquid was 1% or less.) |
| C=CC(=O)OCCCCCCOc1ccc(C(=O)Oc2ccc(C(=O)Oc3ccc(OCCCCCCOC(=O)C=C)cc3/C=N/Nc3nc4ccccc4s3)cc2)cc1 [1-eh-72] | A (No visual change in the appearance of the coating liquid was confirmed. A GPC analysis of the coating liquid confirmed that the change in the composition of the coating liquid was 1% or less.) |
| C=CC(=O)OCCCOc1ccc(C(=O)Oc2ccc3cc(C(=O)Oc4ccc(OCCCOC(=O)C=C)cc4/C=N/Nc4nc5ccccc5s4)ccc3c2)cc1 [1-eh-74] | A (No visual change in the appearance of the coating liquid was confirmed. A GPC analysis of the coating liquid confirmed that the change in the composition of the coating liquid was 1% or less.) |
| C=CC(=O)OCCCCCCOc1ccc(OC(=O)c2ccc(OC(=O)c3ccc4cc(OCCCCCCOC(=O)C=C)ccc4c3)cc2)c(/C=N/Nc2nc3ccccc3s2)c1 [1-eh-75] | A (No visual change in the appearance of the coating liquid was confirmed. A GPC analysis of the coating liquid confirmed that the change in the composition of the coating liquid was 1% or less.) |
| C=CC(=O)OCCCCOC1CCC(C(=O)Oc2ccc(OC(=O)C3CCC(OCCCCOC(=O)C=C)CC3)c(/C=N/Nc3nc4ccccc4s3)c2)CC1 (stereo not shown) [1-f-18] | A (No visual change in the appearance of the coating liquid was confirmed. A GPC analysis of the coating liquid confirmed that the change in the composition of the coating liquid was 1% or less.) |
| C=CC(=O)OCCCCCCOC1CCC(C(=O)Oc2ccc(OC(=O)C3CCC(OCCCCCCOC(=O)C=C)CC3)c(/C=N/Nc3nc4ccccc4s3)c2)CC1 (stereo not shown) [1-f-19] | A (No visual change in the appearance of the coating liquid was confirmed. A GPC analysis of the coating liquid confirmed that the change in the composition of the coating liquid was 1% or less.) |
| C=CC(=O)OCCCCOC(=O)C1CCC(C(=O)OC2CCC(C(=O)Oc3ccc(OC(=O)C4CCC(OC(=O)C5CCC(C(=O)OCCCCOC(=O)C=C)CC5)CC4)c(/C=N/Nc4nc5ccccc5s4)c3)CC2)CC1 (stereo not shown) [1-f-20] | A (No visual change in the appearance of the coating liquid was confirmed. A GPC analysis of the coating liquid confirmed that the change in the composition of the coating liquid was 1% or less.) |
| C=CC(=O)OCCCCCCOC1CCC(C(=O)Oc2ccc(OC(=O)C3CCC(OCCCCCCOC(=O)C=C)CC3)c(/C=N/N(c3ccccc3)c3ccccc3)c2)CC1 (stereo not shown) [1-f-21] | A (No visual change in the appearance of the coating liquid was confirmed. A GPC analysis of the coating liquid confirmed that the change in the composition of the coating liquid was 1% or less.) |
| C=CC(=O)OCCCCOC(=O)C1CCC(C(=O)OC2CCC(C(=O)Oc3ccc(OC(=O)C4CCC(OC(=O)C5CCC(C(=O)OCCCCOC(=O)C=C)CC5)CC4)c(/C=N/Nc4nc5ccc6ccccc6c5s4)c3)CC2)CC1 (stereo not shown) [1-f-22] | A (No visual change in the appearance of the coating liquid was confirmed. A GPC analysis of the coating liquid confirmed that the change in the composition of the coating liquid was 1% or less.) |
| C=CC(=O)OCCCCOC(=O)C1CCC(OC(=O)C2CCC(C(=O)Oc3ccc(OC(=O)C4CCC(C(=O)OC5CCC(C(=O)OCCCCOC(=O)C=C)CC5)CC4)c(/C=N/Nc4nc5ccccc5s4)c3)CC2)CC1 (stereo not shown) [1-f-95] | A (No visual change in the appearance of the coating liquid was confirmed. A GPC analysis of the coating liquid confirmed that the change in the composition of the coating liquid was 1% or less.) |
| C=CC(=O)OCCCCOC(=O)C1CCC(C(=O)OC2CCC(C(=O)Oc3ccc(OC(=O)C4CCC(OC(=O)C5CCC(C(=O)OCCCCOC(=O)C=C)CC5)CC4)c(/C=N/N(CCCCCC)c4nc5ccccc5s4)c3)CC2)CC1 (stereo not shown) [1-f-97] | A (No visual change in the appearance of the coating liquid was confirmed. A GPC analysis of the coating liquid confirmed that the change in the composition of the coating liquid was 1% or less.) |
| C=CC(=O)OCCCCOC(=O)C1CCC(C(=O)OC2CCC(C(=O)Oc3ccc(OC(=O)C4CCC(OC(=O)C5CCC(C(=O)OCCCCOC(=O)C=C)CC5)CC4)c(/C=N/N(CCCCC)c4nc5ccccc5s4)c3)CC2)CC1 (stereo not shown) [1-f-98] | A (No visual change in the appearance of the coating liquid was confirmed. A GPC analysis of the coating liquid confirmed that the change in the composition of the coating liquid was 1% or less.) |
| C=CC(=O)OCCCCOC(=O)C1CCC(C(=O)OC2CCC(C(=O)Oc3ccc(OC(=O)C4CCC(OC(=O)C5CCC(C(=O)OCCCCOC(=O)C=C)CC5)CC4)c(/C=N/N(CCCC)c4nc5ccccc5s4)c3)CC2)CC1 (stereo not shown) [1-f-99] | A (No visual change in the appearance of the coating liquid was confirmed. A GPC analysis of the coating liquid confirmed that the change in the composition of the coating liquid was 1% or less.) |
| C=CC(=O)OCCCCOC(=O)C1CCC(C(=O)OC2CCC(C(=O)Oc3ccc(OC(=O)C4CCC(OC(=O)C5CCC(C(=O)OCCCCOC(=O)C=C)CC5)CC4)c(/C=N/N(CCC)c4nc5ccccc5s4)c3)CC2)CC1 (stereo not shown) [1-f-100] | A (No visual change in the appearance of the coating liquid was confirmed. A GPC analysis of the coating liquid confirmed that the change in the composition of the coating liquid was 1% or less.) |
| C=CC(=O)OCCCCOC(=O)C1CCC(C(=O)OC2CCC(C(=O)Oc3ccc(OC(=O)C4CCC(OC(=O)C5CCC(C(=O)OCCCCOC(=O)C=C)CC5)CC4)c(/C=N/N(CCC)c4nc5ccccc5s4)c3)CC2)CC1 (stereo not shown) [1-f-101] | A (No visual change in the appearance of the coating liquid was confirmed. A GPC analysis of the coating liquid confirmed that the change in the composition of the coating liquid was 1% or less.) |
